From patent publication US9540389B2, “Antimicrobial potentiators” (priority 2013, dated 2017)

Experiments:
E. coli AB1157 ΔacrF = experiment: Time-kill assay (CIP and/or EPI); type: cell-based, Escherichia coli; details: 25 μM MBX2319 + 1×MIC CIP, 2 hours
Experimental: (§1) Panel (C): Bactericidal activity of CIP alone, 25 μM MBX2319 alone, or 25 μM MBX2319 combined with a bacteriostatic concentration of CIP against E. coli AB1157 and isogenic efflux defective mutants after 2 hours exposure. […] Panel (D): Bactericidal activity of CIP alone, 25 μM MBX2319 alone, 25 μM PAβN alone, and a bacteriostatic concentration of CIP combined with 25 μM MBX2319 or combined with 25 μM PAβN against the following organisms: a) E. coli AB1157, b) E. coli ATCC 25922, c) K. pneumoniae ATCC 700603, d) S. flexneri ATCC 12022, e) S. enterica ATCC 14028, f) E. aerogenes ATCC 13048.
(§2) • Strains and Reagents. The following strains were obtained from the Keio collection (Baba, et al.: Construction of Escherichia coli K-12 in-frame, single-gene knockout mutants: the Keio collection. In Mol Syst Biol, vol. 2, pp. 2006 0008, (2006)): JW0451 (ΔacrB::kan), JW5503 (ΔtolC::kan), JW3234 (ΔacrF::kan), JW2661 (ΔemrB::kan), JW0863 (ΔmacB::kan). The deletion mutations in each of these strains were transferred to AB1157 using P1 phage transduction (see Table 1). The construction of the E. coli cell-based reporter strain (SOS-XXX) that was used for high throughput screening is described in detail in the supplementary information. […] Irgasan was a generous gift from Ciba Speciality Chemicals, Inc. (High Point, N.C.). Hoechst 33342 (H33342) was purchased from Molecular Probes (Eugene, Oreg.). […] Luria Broth (Miller) and agar were purchased as prepared dehydrated media from Becton Dickenson (Franklin Lakes, N.J.). The compound libraries used in high-throughput screens were purchased from Chembridge (San Diego, Calif.), ChemDiv (San Diego, Calif.), and TimTec (Newark, Del.). MBX2319 was synthesized by Microbiotix, Inc. • Antibacterial Activity Assays. The minimal inhibitory concentration (MIC) of antibacterial agents and biocides were determined using the microbroth dilution method essentially as described in the CLSI protocol M7-A7 (CLSI: Method for dilution antimicrobial susceptibility testing for bacteria that grow aerobically; Approved standard-document M7-A7. In Clinical and Laboratory Standards Institute document M7-A7, Clinical and Laboratory Standards Institute, Wayne, Pa., (2006)), with the following exceptions. LB media was used instead of MHB. […] The final concentration of DMSO in each assay was 2%. […] MIC assays were performed in triplicate and the geometric mean was calculated. […] Viability was monitored over 2-4 hours by making serial dilutions in saline and spotting 5 μl of each dilution onto the surface of an LB agar plate in triplicate. Colonies were counted after the plates were incubated at 37° C. for 16-18 hr, colony forming units (CFU) per ml were calculated, and the average and standard deviation for the three replicates was determined. […]

E. coli AB1157 = experiment: Time-kill assay (CIP and/or EPI); type: cell-based, Escherichia coli
Experimental: as §1, §2

Compound: CC1(C)Cc2c(C#N)c(SCCc3ccccc3)nc(N3CCOCC3)c2CO1 [MBX2319]
- potentiation of the bactericidal activity of CIP (E. coli AB1157 ΔacrF): potentiated the bactericidal activity of CIP
- decreased viability (CFU/ml) as compared to 1×MIC CIP alone (E. coli AB1157; 3.13 μM MBX2319 + […] CIP, 4 hr exposure): 10,000 fold
- effect on bactericidal activity of […] CIP (1×MIC) (E. coli AB1157; MBX2319 up to 3.13 μM, dose-dependent, PAβN as high as 100 μM): increased the bactericidal activity
- effect on growth, compound alone (E. coli AB1157; alone at concentrations up to 50 μM): did not affect growth
